Source: patent US20160081968A1, “COMPOSITION FOR USE IN REDUCING SCAB FORMATION AND PROMOTING HEALING” (BIOGLAN AB, priority 2013, published 2016)

Tested on: bacteria (e.g. S. aureus, B. subtilis, Pseud. aeuruginosa)
Assay: Antimicrobial activity of glyceryl monolaurate
Format: cell-based
Source text: The compositions have an inbuilt antimicrobial system which gives less need for preservatives. The antimicrobial activity of the composition is partly due to the presence of hydrogen peroxide and partly due to the presence of glyceryl monolaurate. […] In combination with hydrogen peroxide, a synergistic effect is achieved and antimicrobial activity according to A criteria is obtained against also yeast (e.g. Candida albicans) and molds (Aspergillus niger). This was shown by performing a preservative effectiveness test according to the PhEur method. Acceptance criteria A is the most strict criteria according to PhEur. Criteria B is less strict.

SMILES: CCCCCCCCCCCC(=O)OCC(O)CO (stereo not shown) [Glyceryl monolaurate]
- antimicrobial activity against bacteria: antimicrobially active against bacteria
